One assay addresses T1, wild-type HIV-1 protease (Human immunodeficiency virus type 1 group M subtype B, UniProt P04585).
T1 construct: the protease (which was expressed in Eschericia coli); made in house; host or cells: Escherichia coli
The assay can be described thus: Assay for inhibition of microbial expressed HIV protease. The assay is classed as biochemical. The procedure:
Inhibition studies of the reaction of the protease (which was expressed in Eschericia coli) with a peptide substrate [Val-Ser-Gln-Asn-(betanapthyl)Ala-Pro-Ile-Val] (SEQ ID NO: 1). The inhibitor is first preincubated with the enzyme in assay buffer (50 mM sodium acetate, pH 5.5, 100 mM NaCl, and 0.1% BSA) for 30 minutes at room temperature. Substrate is added to 440 micromolar in a total volume of 80 microliters containing 5 picomolar HIV-1 protease, and the reaction is incubated for 1 hour at 30° C. The reaction is quenched by addition of 120 microliters of 10% phosphoric acid, and product formation is determined after separation of product and substrate on a Vydac C18 column connected to an Alliance high performance liquid chromatography system (Waters Corporation). The extent of inhibition of the reaction is determined from the peak area of the products.

Assay [1] has as its system acute HIV infection of T-lymphoid cells (HIV-1 replication). The assay can be described thus: Assay for inhibition of HIV replication (Spread Assay). Type of assay: cell-based. The conditions noted are these: Human immunodeficiency virus 1, T-lymphoid, 10% FBS. The procedure: Assays for the inhibition of acute HIV infection of T-lymphoid cells were conducted in accordance with Vacca, J. P. et al., Proc. Natl. Acad. Sci. USA 1994, 91: 4096.

As a reminder, the IC50 is the concentration that inhibits the measured activity by half. Lower therefore signals higher potency. By IC95 is commonly meant the concentration at which the effect reaches the 95% level. Read a low IC95 as an effect from little substance. In the case of `COC(=O)N[C@H](C(=O)NCCC[C@@H]1CNC[C@H]1N(CCC(C)C)S(=O)(=O)c1ccc(N)cc1)C(c1ccccc1)c1ccccc1` (relative stereo) [Example 12, N-{3-[(3R*,4S*)-4-{[(4-aminophenyl)sulfonyl](3-methylbutyl)amino}pyrrolidin-3-yl]propyl}-Nα-(methoxycarbonyl)-β-phenyl-L-phenylalaninamide], the midpoint of inhibition at wild-type HIV-1 protease, the IC50, lay at 0.05 nM. In addition, the 95% effect level in assay [1] (IC95) was put at 324 nM.
The matching figures for `COC(=O)N[C@H](C(=O)NCCN[C@@H]1CNC[C@H]1N(CCC(C)C)S(=O)(=O)c1ccc(N)cc1)C(c1ccccc1)c1ccccc1` [Example 1, N-(2-{[(3R,4R)-4-{[(4-aminophenyl)sulfonyl](3-methylbutyl)amino}pyrrolidin-3-yl]amino}ethyl)-Nα-(methoxycarbonyl)-β-phenyl-L-phenylalaninamide]: 0.7 nM and 495 nM.
Consider `COC(=O)N[C@H](C(=O)N[C@@H](C)CN[C@@H]1CNC[C@H]1N(CCC(C)C)S(=O)(=O)c1ccc(N)cc1)C(c1ccccc1)c1ccccc1` [Example 2, N-[(2S)-1-{[(3R,4R)-4-{[(4-aminophenyl)sulfonyl](3-methylbutyl)amino}pyrrolidin-3-yl]amino}propan-2-yl]-Nα-(methoxycarbonyl)-β-phenyl-L-phenylalaninamide], for which the IC50 at wild-type HIV-1 protease was determined as 0.055 nM. For the same compound, the 95% effect concentration (IC95) in assay [1] worked out at 423 nM.
For `CC[C@@H](CN[C@@H]1CNC[C@H]1N(CCC(C)C)S(=O)(=O)c1ccc(N)cc1)NC(=O)[C@@H](NC(=O)OC)C(c1ccccc1)c1ccccc1` [Example 3, N-[(2S)-1-{[(3R,4R)-4-{[(4-aminophenyl)sulfonyl](3-methylbutyl)amino}pyrrolidin-3-yl]amino}butan-2-yl]-Nα-(methoxycarbonyl)-β-phenyl-L-phenylalaninamide], in that order: 0.22 nM and 472 nM.
The matching figures for `CCCCC(CN[C@@H]1CNC[C@H]1N(CCC(C)C)S(=O)(=O)c1ccc(N)cc1)NC(=O)[C@@H](NC(=O)OC)C(c1ccccc1)c1ccccc1` (stereo partly drawn) [Example 4, N-(1-{[(3R,4R)-4-{[(4-aminophenyl)sulfonyl](3-methylbutyl)amino}pyrrolidin-3-yl]amino}hexan-2-yl)-Nα-(methoxycarbonyl)-β-phenyl-L-phenylalaninamide]: 3.6 nM and 399 nM.
For `COC(=O)N[C@H](C(=O)N[C@H](CN[C@@H]1CNC[C@H]1N(CCC(C)C)S(=O)(=O)c1ccc(N)cc1)CC(C)C)C(c1ccccc1)c1ccccc1` [Example 5, N-[(2S)-1-{[(3R,4R)-4-{[(4-aminophenyl)sulfonyl](3-methylbutyl)amino}pyrrolidin-3-yl]amino}-4-methylpentan-2-yl]-Nα-(methoxycarbonyl)-β-phenyl-L-phenylalaninamide], in that order: 3.2 nM and 405 nM.
In turn, `COC(=O)N[C@H](C(=O)NC(C)(C)CN[C@@H]1CNC[C@H]1N(CCC(C)C)S(=O)(=O)c1ccc(N)cc1)C(c1ccccc1)c1ccccc1` [Example 6, N-(1-{[(3R,4R)-4-{[(4-aminophenyl)sulfonyl](3-methylbutyl)amino}pyrrolidin-3-yl]amino}-2-methylpropan-2-yl)-Nα-(methoxycarbonyl)-β-phenyl-L-phenylalaninamide] gave a half-inhibitory concentration (IC50) against wild-type HIV-1 protease of 0.05 nM. Also, in assay [1], the IC95 is 291 nM.
The matching figures for `COC(=O)N[C@H](C(=O)NCCN[C@@H]1CNC[C@H]1N(CC(C)C)S(=O)(=O)c1ccc(N)cc1)C(c1ccccc1)c1ccccc1` [Example 7, N-(2-{[(3R,4R)-4-{[(4-aminophenyl)sulfonyl](2-methylpropyl)amino}pyrrolidin-3-yl]amino}ethyl)-Nα-(methoxycarbonyl)-β-phenyl-L-phenylalaninamide]: 3.7 nM and 500 nM.
Turning to `COC(=O)N[C@H](C(=O)NCCN[C@@H]1CNC[C@H]1N(C(C)C)S(=O)(=O)c1ccc(N)cc1)C(c1ccccc1)c1ccccc1` [Example 8, N-(2-{[(3R,4R)-4-{[(4-aminophenyl)sulfonyl](isopropyl)amino}pyrrolidin-3-yl]amino}ethyl)-Nα-(methoxycarbonyl)-β-phenyl-L-phenylalaninamide], half-maximal inhibition on wild-type HIV-1 protease (IC50) was put at 22 nM. Moreover, the inhibition at 0.5 µM in assay [1] (@ 500 nM, read-out: Spread - inhibition at a fixed concentration) worked out at 26%.
For `COC(=O)N[C@H](C(=O)NCCN[C@@H]1CNC[C@H]1N(Cc1ccccc1)S(=O)(=O)c1ccc(N)cc1)C(c1ccccc1)c1ccccc1` [Example 9, N-(2-{[(3R,4R)-4-{[(4-aminophenyl)sulfonyl](benzyl)amino}pyrrolidin-3-yl]amino}ethyl)-Nα-(methoxycarbonyl)-β-phenyl-L-phenylalaninamide], on wild-type HIV-1 protease, half-maximal inhibition (IC50) required 8.6 nM. This compound came in with an IC95 in assay [1] of 505 nM.
For `COC(=O)N[C@H](C(=O)NCCN(C)[C@@H]1CNC[C@H]1N(CCC(C)C)S(=O)(=O)c1ccc(N)cc1)C(c1ccccc1)c1ccccc1` [Example 10, N-{2-[{(3R,4R)-4-[[(4-aminophenyl)sulfonyl](3-methylbutyl)amino]pyrrolidin-3-yl}(methyl)amino]ethyl}-N-alpha-(methoxycarbonyl)-beta-phenyl-L-phenylalaninamide], in that order: 15 nM and 217 nM.
`COC(=O)N[C@H](C(=O)NCCN[C@@H]1CNC[C@H]1N(CCC(C)C)S(=O)(=O)c1ccc(CO)cc1)C(c1ccccc1)c1ccccc1` [Example 11, N-[2-({(3R,4R)-4-[{[4-(hydroxymethyl)phenyl]sulfonyl}(3-methylbutyl)amino]pyrrolidin-3-yl}amino)ethyl]-Nalpha-(methoxycarbonyl)-beta-phenyl-L-phenylalaninamide] came in with an IC50 on wild-type HIV-1 protease of 0.29 nM. For the same compound, the concentration for an effect of 95% (IC95) in assay [1] worked out at 328 nM.

The values are drawn from patent US8497383B2, “HIV protease inhibitors” (Merck Sharp & Dohme Corp., priority 2009, dated 2013).
